As usually defined, the IC50 is the midpoint of a concentration-inhibition curve.

Drawing on patent US7973033B2, “Multi-cyclic cinnamide derivatives” (Eisai R&D Management Co., Ltd., priority 2006, dated 2011), this text covers IC50 for 19 compounds.

The test deals with Aβ 42 production. Kind of test: Quantification of Aβ Peptide in Culture of Neurons from Rat Fetus Brain. Type of test: cell-based. To be noted: Neuron, 72 h; rat primary neuronal culture (cerebral cortex, embryonic day 18 Wistar rats); medium collected three days after addition of the compound; Aβ ELISA; read-out: Effect of reducing Aβ 42 production IC50. Here is the method:
Quantification of Aβ Peptide in Culture of Neurons from Rat Fetus Brain
(1) Rat Primary Neuronal Culture
Primary neuronal cultures were prepared from the cerebral cortex of embryonic day 18 Wistar rats (Charles River Japan, Yokohama, Japan). Specifically, the embryos were aseptically removed from pregnant rats under ether anesthesia. The brain was isolated from the embryo and immersed in an ice-cold L-15 medium (Invitrogen Corp. Cat #11415-064, Carlsbad, Calif., USA, or SIGMA L1518, for example). The cerebral cortex was collected from the isolated brain under a stereoscopic microscope. The cerebral cortex fragments collected were enzymatically treated in an enzyme solution containing 0.25% trypsin (Invitrogen Corp. Cat #15050-065, Carlsbad, Calif., USA) and 0.01% DNase (Sigma D5025, St. Louis, Mo., USA) at 37° C. for 30 minutes to disperse the cells. Here, the enzymatic reaction was stopped by adding inactivated horse serum to the solution. The enzymatically treated solution was centrifuged at 1,500 rpm for five minutes to remove the supernatant. 5 to 10 ml of a medium was added to the resulting cell mass. Neurobasal medium (Invitrogen Corp. Cat #21103-049, Carlsbad, Calif., USA) supplemented with 2% B27 supplement (Invitrogen Corp. Cat #17504-044, Carlsbad, Calif., USA), 25 μM 2-mercaptoethanol (2-ME, WAKO Cat #139-06861, Osaka, Japan), 0.5 mM L-glutamine (Invitrogen Corp. Cat #25030-081, Carlsbad, Calif., USA), and Antibiotics-Antimycotics (Invitrogen Corp. Cat #15240-062, Carlsbad, Calif., USA) was used as the medium (Neurobasal/B27/2-ME). However, the above Neurobasal medium not supplemented with 2-ME (Neurobasal/B27) was used for the assay. The cells were redispersed by mild pipetting of the cell mass to which the medium was added. The cell dispersion was filtered through a 40-μm nylon mesh (Cell Strainer, Cat #35-2340, Becton Dickinson Labware, Franklin Lakes, N.J., USA) to remove the remaining cell mass, and thus a neuronal cell suspension was obtained. The neuronal cell suspension was diluted with the medium and then plated in a volume of 100 μl/well at an initial cell density of 5×10^5 cells/cm^2 in a 96-well polystyrene culture plate pre-coated with poly-L or D-lysine (Falcon Cat #35-3075, Becton Dickinson Labware, Franklin Lakes, N.J., USA coated with poly-L-lysine using the method shown below, or BIOCOAT™ cell environments Poly-D-lysine cell ware 96-well plate, Cat #35-6461, Becton Dickinson Labware, Franklin Lakes, N.J., USA). Poly-L-lysine coating was carried out as follows. 100 μg/ml of a poly-L-lysine (SIGMA P2636, St. Louis, Mo., USA) solution was aseptically prepared with a 0.15 M borate buffer (pH 8.5). 100 μl/well of the solution was added to the 96-well polystyrene culture plate and incubated at room temperature for one or more hours or at 4° C. overnight or longer. The coated 96-well polystyrene culture plate was washed with sterile water four or more times, and then dried or rinsed with, for example, sterile PBS or medium, and used for cell plating. The plated cells were cultured in the culture plate at 37° C. in 5% CO2-95% air for one day. Then, the total amount of the medium was replaced with a fresh Neurobasal™/B27/2-ME medium, and then the cells were cultured for further three days.
The drug was added to the culture plate on Day 4 of culture as follows. The total amount of the medium was removed from the wells, and 180 μl/well of Neurobasal medium not containing 2-ME and containing 2% B-27 (Neurobasal/B27) was added thereto. A solution of the test compound in dimethyl sulfoxide (hereinafter abbreviated as DMSO) was diluted with Neurobasal/B27 at 10-fold of the final concentration. 20 μl/well of the dilution was added to and sufficiently mixed with the medium. The final DMSO concentration was 1% or less. Only DMSO was added to the control group.
The cells were cultured for three days after addition of the compound, and the total amount of the medium was collected. […]
In general terms: ELISA stands for enzyme-linked immunosorbent assay.

As for `COC(=O)c1c(-c2ccc(F)cc2)nc2n1CCC/C2=C\c1ccc(-n2cnc(C)c2)c(OC)c1` [Example 22, methyl 2-(4-fluorophenyl)-8-{1-[3-methoxy-4-(4-methyl-1H-imidazol-1-yl)phenyl]-(E)-methylidene}-5,6,7,8-tetrahydroimidazo[1,2-a]pyridine-3-carboxylate], the IC50 is 0.17 µM.
In the case of `COC(=O)c1[nH]c(/C=C/c2ccc(-n3cnc(C)c3)c(OC)c2)nc1-c1ccc(F)cc1` [Example 6, methyl 5-(4-fluorophenyl)-2-{(E)-2-[3-methoxy-4-(4-methyl-1H-imidazol-1-yl)phenyl]vinyl}-1H-imidazole-4-carboxylate], the concentration for half-maximal inhibition (IC50) turned out to be 0.06 µM.
Consider `COc1cc(/C=C/c2nc3n(n2)CCC[C@@H]3c2c(F)cc(F)cc2F)ccc1-n1cnc(C)c1` (single isomer, unassigned) [Example 64, (−)-2-{(E)-2-[3-methoxy-4-(4-methyl-1H-imidazol-1-yl)phenyl]vinyl}-8-(2,4,6-trifluorophenyl)-5,6,7,8-tetrahydro[1,2,4]triazolo[1,5-a]pyridine], for which the IC50 was found to be 0.028 µM.
Take `Cc1cn(-c2ccc(/C=C/c3nc4n(n3)CCCC4c3cc(F)c(F)c(F)c3)cc2F)cn1` (single isomer, unassigned) [Example 62, (−)-2-{(E)-2-[3-fluoro-4-(4-methyl-1H-imidazol-1-yl)phenyl]vinyl}-8-(3,4,5-trifluorophenyl)-5,6,7,8-tetrahydro[1,2,4]triazolo[1,5-a]pyridine]: the 50% inhibitory concentration (IC50) came to 0.023 µM.
In the case of `COc1cc(/C=C/c2nc3n(n2)CCCC3c2cc(F)c(F)c(F)c2)ccc1-n1cnc(C)c1` (single isomer, unassigned) [Example 54, (−)-2-{(E)-2-[3-methoxy-4-(4-methyl-1H-imidazol-1-yl)phenyl]vinyl}-8-(3,4,5-trifluorophenyl)-5,6,7,8-tetrahydro[1,2,4]triazolo[1,5-a]pyridine] it was 0.014 µM.
With `COc1cc(/C=C/c2nc3n(n2)CCCC3(O)c2cc(F)c(F)c(F)c2)ccc1-n1cnc(C)c1` (single isomer, unassigned) [Example 66, (−)-2-{(E)-2-[3-methoxy-4-(4-methyl-1H-imidazol-1-yl)phenyl]vinyl}-8-(3,4,5-trifluorophenyl)-5,6,7,8-tetrahydro[1,2,4]triazolo[1,5-a]pyridin-8-ol], the IC50 is 0.02 µM.
Consider `COc1cc(/C=C/c2nc3n(n2)CCC[C@@]3(O)c2cccc3ccccc23)ccc1-n1cnc(C)c1` (single isomer, unassigned) [Example 136, (−)-2-{(E)-2-[3-methoxy-4-(4-methyl-1H-imidazol-1-yl)phenyl]vinyl}-8-naphthalen-1-yl-5,6,7,8-tetrahydro[1,2,4]triazolo[1,5-a]pyridin-8-ol], for which the IC50 amounted to 0.024 µM.
On to `COc1cc(/C=C/c2nc3n(n2)CCC3c2cc(F)c(F)c(F)c2)ccc1-n1cnc(C)c1` (single isomer, unassigned) [Example 113, (−)-2-{(E)-2-[3-methoxy-4-(4-methyl-1H-imidazol-1-yl)phenyl]vinyl}-7-(3,4,5-trifluorophenyl)-6,7-dihydro-5H-pyrrolo[1,2-b][1,2,4]triazole], for which the IC50 was found to be 0.032 µM.
For the compound `COc1cc(/C=C/c2nnc(C(C)c3ccc(F)cc3)[nH]2)ccc1-n1cnc(C)c1` (single isomer, unassigned) [Example 36, (+)-3-[1-(4-fluorophenyl)ethyl]-5-{(E)-2-[3-methoxy-4-(4-methyl-1H-imidazol-1-yl)phenyl]vinyl}-4H-[1,2,4]triazole], the IC50 is 0.034 µM.
The value for `COc1ccc([C@@H]2CCCn3nc(/C=C/c4ccc(-n5cnc(C)c5)c(OC)c4)nc32)cc1` (single isomer, unassigned) [Example 75, (−)-2-{(E)-2-[3-methoxy-4-(4-methyl-1H-imidazol-1-yl)phenyl]vinyl}-8-(4-methoxyphenyl)-5,6,7,8-tetrahydro-[1,2,4]triazolo[1,5-a]pyridine] was 0.045 µM; that for `COc1cc(/C=C/c2nc3n(n2)CCOC3c2ccc(OC(F)(F)F)cc2)ccc1-n1cnc(C)c1` (single isomer, unassigned) [Example 135, (−)-2-{(E)-2-[3-methoxy-4-(4-methyl-1H-imidazol-1-yl)phenyl]vinyl}-8-(4-trifluoromethoxyphenyl)-5,6-dihydro-8H-[1,2,4]triazolo[5,1-c][1,4]oxazine] was 0.043 µM; that for `COc1cc(/C=C2\CCCn3c(-c4ccc(F)cc4)cnc32)ccc1-n1cnc(C)c1` [Example 18, 3-(4-fluorophenyl)-8-{1-[3-methoxy-4-(4-methyl-1H-imidazol-1-yl)phenyl]-(E)-methylidene}-5,6,7,8-tetrahydroimidazo[1,2-a]pyridine] was 0.17 µM.
The value for `COc1cc(/C=C/c2nc3n(n2)CCO[C@H]3c2ccc(C)cc2)ccc1-n1cnc(C)c1` (single isomer, unassigned) [Example 138, (−)-2-{(E)-2-[3-methoxy-4-(4-methyl-1H-imidazol-1-yl)phenyl]vinyl}-8-p-tolyl-5,6-dihydro-8H-[1,2,4]triazolo[5,1-c][1,4]oxazine] was 0.047 µM; that for `COc1cc(/C=C/c2nc3n(n2)CCOC3c2ccc(Br)cc2)ccc1-n1cnc(C)c1` (single isomer, unassigned; (-)) [Example 143, (−)-8-(4-bromophenyl)-2-{(E)-2-[3-methoxy-4-(4-methyl-1H-imidazol-1-yl)phenyl]vinyl}-5,6-dihydro-8H-[1,2,4]triazolo[5,1-c][1,4]oxazine] was 0.022 µM.
Turning to `COc1cc(/C=C/c2nc3n(n2)CCCC3c2ccc(C)cc2)ccc1-n1cnc(C)c1` (single isomer, unassigned) [Example 151, (−)-2-{(E)-2-[3-methoxy-4-(4-methyl-1H-imidazol-1-yl)phenyl]vinyl}-8-p-tolyl-5,6,7,8-tetrahydro[1,2,4]triazolo[1,5-a]pyridine], the IC50 worked out at 0.016 µM.
Consider `COc1cc(/C=C/c2nc3n(n2)CCCC3c2cc(F)c(F)c(F)c2)cnc1-n1cnc(C)c1` (single isomer, unassigned) [Example 60, (−)-2-{(E)-2-[5-methoxy-6-(4-methyl-1H-imidazol-1-yl)pyridin-3-yl]vinyl}-8-(3,4,5-trifluorophenyl)-5,6,7,8-tetrahydro[1,2,4]triazolo[1,5-a]pyridine], for which the IC50 turned out to be 0.04 µM.
Turning to `COc1cc(/C=C/c2nc(-c3ccccc3)c[nH]2)ccc1-n1cnc(C)c1` [Example 4, 2-{(E)-2-[3-methoxy-4-(4-methyl-1H-imidazol-1-yl)phenyl]vinyl}-4-phenyl-1H-imidazole], the IC50 turned out to be 0.076 µM.
For the compound `COc1cc(/C=C/c2nc(-c3ccc(F)cc3)c3n2CCOC3)ccc1-n1cnc(C)c1` [Example 13, 1-(4-fluorophenyl)-3-{(E)-2-[3-methoxy-4-(4-methyl-1H-imidazol-1-yl)phenyl]vinyl}-5,6-dihydro-8H-imidazo[5,1-c][1,4]oxazine], the IC50 stood at 0.17 µM.
As for `COc1cc(/C=C/c2nc3n(n2)CCC[C@H]3c2ccccc2Br)ccc1-n1cnc(C)c1` (single isomer, unassigned) [Example 174, (−)-8-(2-bromophenyl)-2-{(E)-2-[3-methoxy-4-(4-methyl-1H-imidazol-1-yl)phenyl]vinyl}-5,6,7,8-tetrahydro[1,2,4]triazolo[1,5-a]pyridine], the IC50 came to 0.023 µM.
